{
  "source": "ChEMBL document CHEMBL1154401",
  "about": "“Therapeutic effect of nisin Z on subclinical mastitis in lactating cows” (Antimicrob Agents Chemother, 2007)",
  "key": {"Staphylococcus aureus [1]": {"test_system": "Staphylococcus aureus", "experiment": "Resistance of Staphylococcus aureus isolated from lactating Holstein bovine subclinical mastitis model at 10 ug/disk after 20 hrs", "type": "functional"}, "Staphylococcus aureus [2]": {"test_system": "Staphylococcus aureus", "experiment": "Antibacterial activity against Staphylococcus aureus in lactating Holstein bovine subclinical mastitis model assessed as reduction in intramammary infections at 2.5X10'6 IU, intramammary dosed after morning milking relative to control", "type": "functional", "set-up": "scale not given: the % may be the effect or the level left"}, "Bos taurus [3]": {"test_system": "Bos taurus", "experiment": "Antiinflammatory activity in lactating Holstein bovine subclinical mastitis model assessed as reduction in N-acetyl-beta-D-[…] activity at 2.5X10'6 IU, intramammary dosed after morning milking measured after 1 week", "type": "functional"}, "Bos taurus [4]": {"test_system": "Bos taurus", "experiment": "Antiinflammatory activity in lactating Holstein bovine subclinical mastitis model assessed as reduction in number of mammary gland quarters with somatic cell count of >=5X10'5/ml at 2.5X10'6 IU, intramammary dosed after morning milking measured after 1 week", "type": "functional", "set-up": "scale not given: the % may be the effect or the level left"}, "Streptococcus agalactiae": {"test_system": "Streptococcus agalactiae", "experiment": "Antibacterial activity against Streptococcus agalactiae in lactating Holstein bovine subclinical mastitis model assessed as reduction in intramammary infections at 2.5X10'6 IU, intramammary dosed after morning milking relative to control", "type": "functional", "set-up": "scale not given: the % may be the effect or the level left"}, "Staphylococcus aureus [5]": {"test_system": "Staphylococcus aureus", "experiment": "Antibacterial activity against Staphylococcus aureus isolated from milk of Holstein bovine subclinical mastitis model after 2 hrs", "type": "functional"}, "Bos taurus [6]": {"test_system": "Bos taurus", "experiment": "Antiinflammatory activity in lactating Holstein bovine subclinical mastitis model assessed as reduction in number of mammary gland quarters with somatic cell count of >=5X10'5/ml at 2.5X10'6 IU, intramammary dosed after morning milking measured after 2 weeks", "type": "functional", "set-up": "scale not given: the % may be the effect or the level left"}, "Staphylococcus": {"test_system": "Staphylococcus", "experiment": "Antibacterial activity against coagulase-negative Staphylococcus infected in lactating Holstein bovine subclinical mastitis model assessed as reduction in intramammary infections at 2.5X10'6 IU, intramammary dosed after morning milking relative to control", "type": "functional", "set-up": "scale not given: the % may be the effect or the level left"}, "Bos taurus [7]": {"test_system": "Bos taurus", "experiment": "Antiinflammatory activity in lactating Holstein bovine subclinical mastitis model assessed as reduction in N-acetyl-beta-D-[…] activity at 2.5X10'6 IU, intramammary dosed after morning milking measured after 2 weeks", "type": "functional"}, "Staphylococcus aureus [8]": {"test_system": "Staphylococcus aureus", "experiment": "Sensitivity of Staphylococcus aureus isolated from lactating Holstein bovine subclinical mastitis model at 5 ug/disk after 20 hrs", "type": "functional", "details": "read-out: IZ"}, "Staphylococcus aureus [9]": {"test_system": "Staphylococcus aureus", "experiment": "Resistance of Staphylococcus aureus isolated from lactating Holstein bovine subclinical mastitis model at 5 ug/disk after 20 hrs", "type": "functional"}, "[10]": {"experiment": "Drug level in milk of lactating bovine clinical mastitis model at 2.5X10'6 IU, intramammary dosed twice daily for 3 days measured after 12 hrs", "type": "ADME, organism-based, Bos taurus", "details": "cattle, in vivo, other"}, "Bos taurus [11]": {"test_system": "Bos taurus", "experiment": "Toxicity in Holstein bovine assessed as decreased milk yeild at 1.25X10'6 IU, intramammary dosed in left hindquarter of mammary gland of mammary gland after morning milking by irritancy test", "type": "organism-based", "details": "cattle, in vivo, other"}, "Bos taurus [12]": {"test_system": "Bos taurus", "experiment": "Toxicity in Holstein bovine assessed as decreased milk yeild with clots and flakes in milk at 5X10'6 IU, intramammary dosed in right forequarter of mammary gland after morning milking by irritancy test", "type": "organism-based", "details": "cattle, in vivo, other"}, "Bos taurus [13]": {"test_system": "Bos taurus", "experiment": "Toxicity in Holstein bovine assessed as decreased milk yeild at 2.5X10'6 IU, intramammary dosed in right hindquarter of mammary gland after morning milking by irritancy test", "type": "organism-based", "details": "cattle, in vivo, other"}, "Bos taurus [14]": {"test_system": "Bos taurus", "experiment": "Toxicity in intramammary dosed Holstein bovine assessed as increase in somatic cell count in dosed after morning milking by irritancy test", "type": "organism-based", "details": "cattle, other"}, "Bos taurus [15]": {"test_system": "Bos taurus", "experiment": "Toxicity in Holstein bovine assessed as visible local reaction with swollen and tender mammary gland at 5X10'6 IU, intramammary dosed in right forequarter of mammary gland after morning milking by irritancy test", "type": "organism-based", "details": "cattle, in vivo, other"}, "Bos taurus [16]": {"test_system": "Bos taurus", "experiment": "Toxicity in Holstein bovine assessed as visible local reaction at 2.5X10'6 IU, intramammary dosed in right hindquarter of mammary gland after morning milking by irritancy test", "type": "organism-based", "details": "cattle, in vivo, other"}, "[17]": {"experiment": "Drug level in milk of lactating Holstein bovine mastitis model at 2.5X10'6 IU, intramammary administered once daily for 3 days measured after 24 hrs", "type": "ADME, Bos taurus", "details": "cattle, other"}, "Bos taurus [18]": {"test_system": "Bos taurus", "experiment": "Toxicity in Holstein bovine assessed as visible local reaction at 1.25X10'6 IU, intramammary dosed in left hindquarter of mammary gland after morning milking by irritancy test", "type": "organism-based", "details": "cattle, in vivo, other"}, "Bos taurus [19]": {"test_system": "Bos taurus", "experiment": "Toxicity in Holstein bovine assessed as visible local reaction at 5X10'6 IU, intramammary dosed in right forequarter of mammary gland after morning milking after 24 hrs by irritancy test", "type": "organism-based", "details": "cattle, in vivo, other"}, "[20]": {"experiment": "Drug level in milk of lactating Holstein bovine mastitis model at 2.5X10'6 IU, intramammary administered once daily for 3 days measured after 48 hrs", "type": "ADME, Bos taurus", "details": "cattle, other"}, "Bos taurus [21]": {"test_system": "Bos taurus", "experiment": "Toxicity in intramammary dosed Holstein bovine assessed as increase in N-acetyl-beta-D-[…] in milk dosed after morning milking by irritancy test", "type": "organism-based", "details": "cattle, in vivo, other"}, "[22]": {"experiment": "Drug level in milk of lactating bovine subclinical mastitis model at 2.5X10'6 IU after 48 hrs", "type": "ADME, Bos taurus", "details": "cattle"}, "[23]": {"experiment": "Drug level in milk of lactating bovine subclinical mastitis model at 2.5X10'6 IU after 24 hrs", "type": "ADME, Bos taurus", "details": "cattle"}, "Staphylococcus aureus [24]": {"test_system": "Staphylococcus aureus", "experiment": "Sensitivity of Staphylococcus aureus isolated from lactating Holstein bovine subclinical mastitis model at 10 ug/disk after 20 hrs", "type": "functional", "details": "read-out: IZ"}, "Staphylococcus aureus [25]": {"test_system": "Staphylococcus aureus", "experiment": "Resistance of Staphylococcus aureus isolated from lactating Holstein bovine subclinical mastitis model at 30 ug/disk after 20 hrs", "type": "functional"}, "Staphylococcus aureus [26]": {"test_system": "Staphylococcus aureus", "experiment": "Sensitivity of Staphylococcus aureus isolated from lactating Holstein bovine subclinical mastitis model at 30 ug/disk after 20 hrs", "type": "functional", "details": "read-out: IZ"}, "[27]": {"details": "Staphylococcus aureus, 20 h, read-out: IZ"}},
  "data": [
    {"compound": "GENTAMICIN", "values": [
      {"measurement": "Activity", "setting": "Staphylococcus aureus [1]", "value": 45, "unit": "%"}
    ]},
    {"compound": "C=C(NC(=O)[C@@H](NC(=O)[C@H](Cc1cnc[nH]1)NC(=O)[C@@H](NC(=O)[C@H](CO)NC(=O)[C@@H]1CS[C@@H](C)[C@H]2NC(=O)[C@H](C)NC(=O)[C@H](NC(=O)[C@H](CCCCN)NC(=O)[C@H](CCSC)NC(=O)[C@H](CC(N)=O)NC(=O)[C@@H]3CS[C@@H](C)[C@@H](NC(=O)[C@H](CCCCN)NC(=O)[C@@H]4CS[C@@H](C)[C@@H](NC(=O)[C@@H]5CSC[C@@H](NC(=O)/C(=C/C)NC(=O)[C@@H](N)[C@@H](C)CC)C(=O)N[C@@H]([C@@H](C)CC)C(=O)NC(=C)C(=O)N[C@@H](CC(C)C)C(=O)N5)C(=O)N5CCC[C@H]5C(=O)NCC(=O)N4)C(=O)NCC(=O)N[C@@H](C)C(=O)N[C@@H](CC(C)C)C(=O)N[C@@H](CCSC)C(=O)NCC(=O)N3)[C@H](C)SC[C@H](NC2=O)C(=O)N[C@@H](CC(N)=O)C(=O)N1)[C@@H](C)CC)C(C)C)C(=O)N[C@@H](CCCCN)C(=O)O", "values": [
      {"measurement": "Activity", "setting": "Staphylococcus aureus [2]", "value": 50, "unit": "%"},
      {"measurement": "Activity", "setting": "Bos taurus [3]", "value": 26.2, "unit": "U/ml"},
      {"measurement": "Activity", "setting": "Bos taurus [4]", "value": 58.7, "unit": "%"},
      {"measurement": "Activity", "setting": "Streptococcus agalactiae", "value": 90.9, "unit": "%"},
      {"measurement": "MIC", "setting": "Staphylococcus aureus [5]", "value": 75.5, "unit": "IU/ml"},
      {"measurement": "Activity", "setting": "Bos taurus [6]", "value": 70.5, "unit": "%"},
      {"measurement": "Activity", "setting": "Staphylococcus", "value": 58.8, "unit": "%"},
      {"measurement": "Activity", "setting": "Bos taurus [7]", "value": 28.9, "unit": "U/ml"}
    ]},
    {"compound": "CCn1cc(C(=O)O)c(=O)c2cc(F)c(N3CCNCC3)cc21", "note": "[NORFLOXACIN]", "values": [
      {"measurement": "zone of inhibition at 5 µg/disc", "setting": "Staphylococcus aureus [8]", "value": "≥ 17", "unit": "mm"},
      {"measurement": "Activity", "setting": "Staphylococcus aureus [9]", "value": 75, "unit": "%"},
      {"measurement": "zone of inhibition at 5 µg/disc", "setting": "Staphylococcus aureus [9]; [27]", "value": "≤ 12", "unit": "mm"}
    ]},
    {"compound": "C=C(NC(=O)[C@@H](NC(=O)[C@H](Cc1c[nH]cn1)NC(=O)[C@@H](NC(=O)[C@H](CO)NC(=O)[C@@H]1CS[C@@H](C)[C@H]2NC(=O)[C@H](C)NC(=O)[C@H](NC(=O)[C@H](CCCCN)NC(=O)[C@H](CCSC)NC(=O)[C@H](CC(N)=O)NC(=O)[C@@H]3CS[C@@H](C)[C@@H](NC(=O)[C@H](CCCCN)NC(=O)[C@@H]4CS[C@@H](C)[C@@H](NC(=O)[C@@H]5CSC[C@@H](NC(=O)/C(=C/C)NC(=O)[C@@H](N)[C@@H](C)CC)C(=O)N[C@@H]([C@@H](C)CC)C(=O)NC(=C)C(=O)N[C@@H](CC(C)C)C(=O)N5)C(=O)N5CCC[C@H]5C(=O)NCC(=O)N4)C(=O)NCC(=O)N[C@@H](C)C(=O)N[C@@H](CC(C)C)C(=O)N[C@@H](CCSC)C(=O)NCC(=O)N3)[C@H](C)SC[C@H](NC2=O)C(=O)N[C@@H](CC(N)=O)C(=O)N1)[C@@H](C)CC)C(C)C)C(=O)N[C@@H](CCCCN)C(=O)O", "values": [
      {"measurement": "Drug uptake", "setting": "[10]", "value": 4.5, "unit": "IU/ml"},
      {"measurement": "Activity", "setting": "Bos taurus [11]", "value": "Non-toxic"},
      {"measurement": "Activity", "setting": "Bos taurus [12]", "value": "Toxic"},
      {"measurement": "Activity", "setting": "Bos taurus [13]", "value": "Non-toxic"},
      {"measurement": "Activity", "setting": "Bos taurus [14]", "value": "Dose-dependent effect"},
      {"measurement": "Activity", "setting": "Bos taurus [15]", "value": "Toxic"},
      {"measurement": "Activity", "setting": "Bos taurus [16]", "value": "Non-toxic"},
      {"measurement": "Drug uptake", "setting": "[17]", "value": 75.8, "unit": "IU/ml"},
      {"measurement": "Activity", "setting": "Bos taurus [18]", "value": "Non-toxic"},
      {"measurement": "Activity", "setting": "Bos taurus [19]", "value": "Toxic"},
      {"measurement": "Drug uptake", "setting": "[20]", "value": 5.7, "unit": "IU/ml"},
      {"measurement": "Activity", "setting": "Bos taurus [21]", "value": "Dose-dependent effect"},
      {"measurement": "Drug uptake", "setting": "[22]", "value": 15, "unit": "IU/ml"},
      {"measurement": "Activity", "setting": "[23]", "value": 83, "unit": "IU/ml"}
    ]},
    {"compound": "CC1(C)S[C@@H]2[C@H](NC(=O)Cc3ccccc3)C(=O)N2[C@H]1C(=O)O", "note": "[PENICILLIN G]", "values": [
      {"measurement": "zone of inhibition at 10 µg/disc", "setting": "Staphylococcus aureus [24]", "value": "≥ 29", "unit": "mm"},
      {"measurement": "Activity", "setting": "Staphylococcus aureus [1]", "value": 80, "unit": "%"},
      {"measurement": "zone of inhibition at 10 µg/disc", "setting": "Staphylococcus aureus [1]; [27]", "value": "≤ 28", "unit": "mm"}
    ]},
    {"compound": "Cc1nnc(SCC2=C(C(=O)O)N3C(=O)[C@@H](NC(=O)Cn4cnnn4)[C@H]3SC2)s1", "note": "[CEFAZOLIN]", "values": [
      {"measurement": "Activity", "setting": "Staphylococcus aureus [25]", "value": 5, "unit": "%"},
      {"measurement": "zone of inhibition at 30 µg/disc", "setting": "Staphylococcus aureus [25]; [27]", "value": "≤ 14", "unit": "mm"},
      {"measurement": "zone of inhibition at 30 µg/disc", "setting": "Staphylococcus aureus [26]", "value": "≥ 18", "unit": "mm"}
    ]}
  ]
}
